Patent US10399939B2, “Tetrahydronaphthalene estrogen receptor modulators and uses thereof” (Genentech, Inc., priority 2015, dated 2019)
pEC50: −log10 of the molar value.

Target: ER-alpha (WT) (Homo sapiens (Human), UniProt P03372)
Test: Breast Cancer Cell ERa High Content Fluorescence Imaging Degradation Assay (ER-alpha MCF7 HCS)
Assay type: cell-based
Details: for ER-alpha (WT) MCF7 HCS (S inf): plateau of the maximal effect (ERa degradation), DMSO and 5 nM Fulvestrant define 0% and 100% changes in ESR1; for degradation activities measured as ER-alpha MCF7 HCS Sinf (%) values (in words): MCF7 cells
Method: Example 901: Breast Cancer Cell ERa High Content Fluorescence Imaging Degradation Assay
MCF7 breast cancer cells were seeded on day 1 at a density of 10,000 cells per well in 384 well poly-lysine coated tissue culture plate (Greiner # T-3101-4), in 50 µL/well RPMI (phenol red free), 10% FBS (Charcoal stripped), containing L-glutamine. […] Compounds and controls were dispensed using a Labcyte Echo acoustic dispenser to dispense compounds with a pre-defined serial dilution (1.8×, 10 point, in duplicate) and appropriate backfill and control compounds (final total volume transferred was 417.5 nL and compound dispense volume ranges from 2.5 nL to 417.5 nL; 0.84% DMSO (v/v) final), ultimately producing a concentration range from 0.05 nM to 835 nM. Cell plates were incubated at 37° C., for 4 hours. Fixation and permeabilization were carried out using a Biotek EL406 plate washer and dispenser as follows. Cells were fixed by addition of 15 μL of 16% paraformaldehyde (Electron Microscopy Sciences #15710-S) directly to the 50 μL cell culture medium in each well using the peristaltic pump 5 μL cassette on a Biotek EL406 (final concentration of formaldehyde was 3.7% w/v). Samples were incubated 30 minutes. Well contents was aspirated and 50 μL/well of Phosphate Buffered Saline (PBS) containing 0.5% w/v bovine serum albumen, 0.5% v/v Triton X-100 (Antibody Dilution Buffer) was added to each well. Samples were incubated for 30 minutes. Well contents were aspirated and washed 3 times with 100 μL/well of PBS. Immunofluorescence staining of estrogen receptor alpha (ESR1) was carried out using a Biotek EL406 plate washer and dispenser as follows. The well supernatant was aspirated from the wells and 25 μL/well of anti-ESR1 mAb (F10) (Santa Cruz sc-8002) diluted 1:1000 in Antibody Dilution Buffer was dispensed. Samples were incubated for 2 hours at room temperature. Samples were washed 4 times with 100 μL/well of PBS. 25 μL (microliters)/well of secondary antibody solution (Alexafluor® 488 conjugate anti-mouse IgG (LifeTechnologies #A21202) diluted 1:1000 and Hoechst 33342 1 μg/ml diluted in Antibody Dilution Buffer) were dispensed into each well. Samples were incubated for 2 hours at room temperature. Samples were washed 3 times with 100 μL/well of PBS using a Biotek EL406. Quantitative fluorescence imaging of ESR1 was carried out using a Cellomics Arrayscan V® (Thermo). Fluorescence images of the samples (Channel 1: XF53 Hoechst (DNA stain); Channel 2: XF53 FITC (ESR1 stain)) were acquired using a Cellomics VTI Arrayscan using the Bioapplication “Compartmental Analysis” using the auto-exposure (based on DMSO control wells) setting “peak target percentile” set to 25% target saturation for both channels. Channel 1 (DNA stain) was used to define the nuclear region (Circ). Measurements of “Mean_CircAvgIntCh2”, which is the Alexafluor 488 fluorescence intensity (ESR1) within the nuclear region, was measured on a per cell basis and averaged over all the measured cells. Data analysis was carried out using Genedata Screener Software, with DMSO and 5 nM Fulvestrant treated samples being used to define the 0% and 100% changes in ESR1. The “Robust Fit” method was used to define the inflexion point of curve (EC50) and the plateau of the maximal effect (Sinf).

[1] = MCF7 breast cancer cells, 4 hours incubation, inflexion point of curve

Sequence of ER-alpha (WT) (P03372 whole entry): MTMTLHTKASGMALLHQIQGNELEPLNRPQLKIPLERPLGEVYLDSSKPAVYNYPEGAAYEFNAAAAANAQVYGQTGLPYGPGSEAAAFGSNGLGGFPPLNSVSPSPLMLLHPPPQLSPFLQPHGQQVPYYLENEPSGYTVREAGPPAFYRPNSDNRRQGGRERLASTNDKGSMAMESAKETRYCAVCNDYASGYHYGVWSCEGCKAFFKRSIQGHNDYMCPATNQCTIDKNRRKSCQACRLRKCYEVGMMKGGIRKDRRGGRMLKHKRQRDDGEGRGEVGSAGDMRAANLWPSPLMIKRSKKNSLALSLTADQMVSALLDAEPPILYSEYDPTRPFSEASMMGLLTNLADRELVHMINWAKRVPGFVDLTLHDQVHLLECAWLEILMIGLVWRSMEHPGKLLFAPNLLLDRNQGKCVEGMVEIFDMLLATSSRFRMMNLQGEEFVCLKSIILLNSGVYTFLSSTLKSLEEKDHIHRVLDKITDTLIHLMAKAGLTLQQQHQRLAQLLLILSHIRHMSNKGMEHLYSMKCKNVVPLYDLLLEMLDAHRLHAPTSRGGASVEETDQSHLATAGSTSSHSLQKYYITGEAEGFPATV

| pEC50 [1] | ER-alpha (WT) MCF7 HCS (S inf) (MCF7 breast cancer cells) | degradation activities measured as ER-alpha MCF7 HCS Sinf (%) values (in words) | ER-alpha (WT) MCF7 HCS (EC50) [1] | SMILES |
| --- | --- | --- | --- | --- |
| 7.72 | −58% | low |  | CN1CC(CCOc2ccc([C@@H]3c4ccc(O)cc4CC[C@@H]3c3ccccc3)cc2)C1 (stereo in doubt) [A, (5R,6S)-5-(4-(2-(1-methylazetidin-3-yl)ethoxy)phenyl)-6-phenyl-5,6,7,8-tetrahydronaphthalen-2-ol, reference compound] |
| 10.59 | −43.35% | low |  | CN1CC(CCOc2ccc([C@H]3c4ccc(O)cc4CC[C@H]3c3ccccc3)cc2)C1 (stereo in doubt) [B, (5S,6R)-5-(4-(2-(1-methylazetidin-3-yl)ethoxy)phenyl)-6-phenyl-5,6,7,8-tetrahydronaphthalen-2-ol, reference compound] |
| 9.43 | −100% |  |  | Oc1ccc2c(c1)CC[C@H](c1ccccc1)[C@@H]2c1ccc(OCCN2CC(CF)C2)cc1 [Compound 101, (1R,2S)-1-[4-[2-[3-(fluoromethyl)azetidin-1-yl]ethoxy]phenyl]-2-phenyl-tetralin-6-ol] |
| 8.09 | −94.7% |  |  | Oc1ccc2c(c1)CC[C@@H](c1ccccc1)[C@H]2c1ccc(OCCN2CC(CF)C2)cc1 [Compound 102, (1S,2R)-1-[4-[2-[3-(fluoromethyl)azetidin-1-yl]ethoxy]phenyl]-2-phenyl-tetralin-6-ol] |
| 7.41 | −78% |  |  | Oc1ccc2c(c1)CC[C@@H](c1ccc(F)cc1)[C@H]2c1ccc(OCCN2CC(CF)C2)cc1 [Compound 103, (1S,2R)-1-[4-[2-[3-(fluoromethyl)azetidin-1-yl]ethoxy]phenyl]-2-(4-fluorophenyl)tetralin-6-ol] |
| 7.81 | −95% |  |  | Oc1ccc2c(c1)CC[C@@H](c1ccccc1)[C@H]2c1c(F)cc(OCCN2CC(CF)C2)cc1F [Compound 104, (1R,2R)-1-[2,6-difluoro-4-[2-[3-(fluoromethyl)azetidin-1-yl]ethoxy]phenyl]-2-phenyl-tetralin-6-ol] |
| 10.39 | −98.7% |  |  | Oc1ccc2c(c1)CC[C@H](c1ccccc1)[C@@H]2c1c(F)cc(OCCN2CC(CF)C2)cc1F [Compound 105, (1S,2S)-1-[2,6-difluoro-4-[2-[3-(fluoromethyl)azetidin-1-yl]ethoxy]phenyl]-2-phenyl-tetralin-6-ol] |
| 9.01 | −97% |  |  | Oc1ccc2c(c1)CC[C@H](c1ccc(F)cc1)[C@@H]2c1ccc(OCCN2CC(CF)C2)cc1 [Compound 106, (1R,2S)-1-[4-[2-[3-(fluoromethyl)azetidin-1-yl]ethoxy]phenyl]-2-(4-fluorophenyl)tetralin-6-ol] |
| 7.79 | −87.8% |  |  | Oc1ccc2c(c1)CC[C@H](C1CCOCC1)[C@@H]2c1ccc(OCCN2CC(CF)C2)cc1 [Compound 107, (5R,6R)-5-(4-(2-(3-(fluoromethyl)azetidin-1-yl)ethoxy)phenyl)-6-(tetrahydro-2H-pyran-4-yl)-5,6,7,8-tetrahydronaphthalen-2-ol] |
| 7.84 | −97% |  |  | Oc1ccc2c(c1)CC[C@@H](C1CCC(F)(F)CC1)[C@H]2c1ccc(OCCN2CC(CF)C2)cc1 [Compound 108, (5S,6S)-6-(4,4-difluorocyclohexyl)-5-(4-(2-(3-(fluoromethyl)azetidin-1-yl)ethoxy)phenyl)-5,6,7,8-tetrahydronaphthalen-2-ol] |
| 9.79 | −95.2% |  |  | Oc1ccc2c(c1)CC[C@@H](C1CCOCC1)[C@H]2c1ccc(OCCN2CC(CF)C2)cc1 [Compound 109, (5S,6S)-5-(4-(2-(3-(fluoromethyl)azetidin-1-yl)ethoxy)phenyl)-6-(tetrahydro-2H-pyran-4-yl)-5,6,7,8-tetrahydronaphthalen-2-ol] |
| 9.75 | −98.2% |  |  | Oc1ccc2c(c1)CC[C@H](C1CCC(F)(F)CC1)[C@@H]2c1ccc(OCCN2CC(CF)C2)cc1 [Compound 110, (5R,6R)-6-(4,4-difluorocyclohexyl)-5-(4-(2-(3-(fluoromethyl)azetidin-1-yl)ethoxy)phenyl)-5,6,7,8-tetrahydronaphthalen-2-ol] |
| 7.33 | −55% |  |  | Oc1ccc2c(c1)CC[C@H](c1ccccc1)[C@@H]2c1ccc(OCCN2CCC(CF)C2)cc1 (stereo partly drawn) [Compound 111, (5R,6S)-5-(4-(2-(3-(fluoromethyl)pyrrolidin-1-yl)ethoxy)phenyl)-6-phenyl-5,6,7,8-tetrahydronaphthalen-2-ol] |
| 7.29 | −35% |  |  | Oc1ccc2c(c1)CC[C@H](c1ccccc1)[C@@H]2c1ccc(OCCN2CC(CCl)C2)cc1 [Compound 112, (5R,6S)-5-(4-(2-(3-(chloromethyl)azetidin-1-yl)ethoxy)phenyl)-6-phenyl-5,6,7,8-tetrahydronaphthalen-2-ol] |
| 9.75 | −93.6% |  |  | Oc1ccc2c(c1)CC[C@@H](c1ccccc1)[C@H]2c1ccc(OCCN2CC(CCl)C2)cc1 [Compound 113, (5S,6R)-5-(4-(2-(3-(chloromethyl)azetidin-1-yl)ethoxy)phenyl)-6-phenyl-5,6,7,8-tetrahydronaphthalen-2-ol] |
| 10.00 | −94.2% |  |  | Oc1ccc2c(c1)CC[C@@H](c1ccccc1)[C@H]2c1ccc(OCCN2CCC(CF)C2)cc1 (stereo partly drawn) [Compound 114, (5S,6R)-5-(4-(2-(3-(fluoromethyl)pyrrolidin-1-yl)ethoxy)phenyl)-6-phenyl-5,6,7,8-tetrahydronaphthalen-2-ol] |
| 7.40 | −75% |  |  | CS(=O)(=O)c1ccc([C@@H]2CCc3cc(O)ccc3[C@@H]2c2ccc(OCCN3CC(CF)C3)cc2)cc1 [Compound 115, (5S,6R)-5-(4-(2-(3-(fluoromethyl)azetidin-1-yl)ethoxy)phenyl)-6-(4-(methylsulfonyl)phenyl)-5,6,7,8-tetrahydronaphthalen-2-ol] |
|  |  |  | >0.10 µmol | Oc1ccc2c(c1)CC[C@@H](c1ccccc1)[C@H]2c1ccc(OCCN2CC(C(F)F)C2)cc1 [Compound 116, (5S,6R)-5-(4-(2-(3-(difluoromethyl)azetidin-1-yl)ethoxy)phenyl)-6-phenyl-5,6,7,8-tetrahydronaphthalen-2-ol] |
| 9.64 | −91.4% |  |  | CS(=O)(=O)c1ccc([C@H]2CCc3cc(O)ccc3[C@H]2c2ccc(OCCN3CC(CF)C3)cc2)cc1 [Compound 117, (5R,6S)-5-(4-(2-(3-(fluoromethyl)azetidin-1-yl)ethoxy)phenyl)-6-(4-(methylsulfonyl)phenyl)-5,6,7,8-tetrahydronaphthalen-2-ol] |
| 9.74 | −93.6% |  |  | Oc1ccc2c(c1)CC[C@H](c1ccccc1)[C@@H]2c1ccc(OCCN2CC(C(F)F)C2)cc1 [Compound 118, (5R,6S)-5-(4-(2-(3-(difluoromethyl)azetidin-1-yl)ethoxy)phenyl)-6-phenyl-5,6,7,8-tetrahydronaphthalen-2-ol] |
| 7.78 | −85% |  |  | Oc1ccc2c(c1)CC[C@@H](c1ccccc1)[C@H]2c1ccc(OCCN2CC(CF)C2)cc1F [Compound 119, (5R,6R)-5-(2-fluoro-4-(2-(3-(fluoromethyl)azetidin-1-yl)ethoxy)phenyl)-6-phenyl-5,6,7,8-tetrahydronaphthalen-2-ol] |
